Patent US11865129B2, “Application of anemoside B4 in preparation of a drug for treatment or prevention of psoriasis” (GUANGXI XINHAI PHARMACEUTICAL TECHNOLOGY CO., LTD., priority 2021, dated 2024)

Columns and labels:
IL-17 [1] = assay: IL-17 level in skin tissue, psoriasis model mice; format: in vivo, BALB/c male mice; conditions: 12 days, compared with model control group
Procedure: (§1) A shaving area on the back of the mice in each group is 2.5 cm×3 cm, and the vellus is removed with mild depilatory cream. The mice of each group except the blank control group are modeled by administrating 62.5 mg 5% imiquimod cream on the shaving area until the skin is thickened and has erythema and silver scales for modeling completely. During the model establishment, 5% imiquimod cream is administrated once a day, and continuously administrated for 14 days. On the third day, the model establishment is continued and drugs are administered at the same time, wherein the mice in the AC intragastric administration group (8 mg/kg), the anemoside B4 intragastric (i.g.) administration group (5 mg/kg), the anemoside B4 intragastric administration group (10 mg/kg), and the anemoside B4 intragastric administration group (20 mg/kg) are administrated once a day, and continuously administrated for 12 days. […] The mice in the blank control group and the model control group are applied 62.5 mg Vaseline to the skin lesions once a day, and continuously applied for 12 days. The weight of the mice is recorded for counting the weight change of the mice. 100 mg skin tissue of the mice in each group of the first animal group are precisely weighed, added 0.9 mL ice normal saline, homogenized with the tissue grinder, and centrifuged at 4° C. and 3000 rpm for 10 min. The supernatant is collected, and IL-12, IL-17, IL-6 and IL-1β level in the skin tissue are measured by kits according to the procedures of specification.

IL-6 = IL-6 level in serum by ELISA, psoriasis model rats; format: in vivo, SD male rats; conditions: 7 days, vs model control group
Procedure: (§2) 60 SPF-grade SD male rats in the second animal group are divided into 6 groups: a blank control group, a model control group, an anemoside B4 intragastric administration group (5 mg/kg), an anemoside B4 intragastric administration group (10 mg/kg), an anemoside B4 intragastric administration group (20 mg/kg), and an acitretin intragastric administration group (5 mg/kg), and are respectively expressed into the blank control group, the model group, anemoside B4 5 mg/kg, anemoside B4 10 mg/kg, anemoside B4 20 mg/kg, and acitretin 5 mg/kg in FIGS. 3, 4 and 5 for convenience. A shaving area on the back of the rats in each group is 2.5 cm×3 cm, and the vellus is removed with mild depilatory cream. The rats of each group except the blank control group are modeled by administrating 62.5 mg 5% imiquimod cream on the shaving area until the skin is thickened and has erythema and silver scales for modeling completely.
(§3) 5% imiquimod cream is administrated once a day, and continuously administrated for 8 days for model establishment. On the second day, the rats in each group are continuously intragastric (i.g.) administered drugs for 7 days.
(§4) After administration, blood is taken from abdominal aorta of the rats in each group of the second animal group, centrifuged to collect the serum, and measured the M-CSF, VEGF, IL-6 and IL-17 level in the serum by ELISA kits according to the procedures of specification.

IL-12 = IL-12 level in skin tissue, psoriasis model mice; format: in vivo, BALB/c male mice; conditions: 12 days, compared with model control group
Procedure: as §1

[2] = tested on: 5% imiquimod-induced psoriatic lesions; assay: Psoriatic lesions and PASI, 5% imiquimod-induced psoriasis model in mice (first animal group); format: in vivo, BALB/c male mice; conditions: for skin lesions of the mice: 12 days
Procedure: as §1, with “mice.” for “mice. 100 mg skin tissue of the mice in each group of the first animal group are precisely weighed, added 0.9 mL ice normal saline, homogenized with the tissue grinder, and centrifuged at 4° C. and 3000 rpm for 10 min. The supernatant is collected, and IL-12, IL-17, IL-6 and IL-1β level in the skin tissue are measured by kits according to the procedures of specification.”

IL-17 [3] = assay: IL-17 level in serum by ELISA, psoriasis model rats; format: in vivo, SD male rats; conditions: 7 days, vs model control group
Procedure: as §2, §3, §4

[4] = tested on: T lymphocyte subsets of CD4+, CD3+, CD4+/CD8+; assay: T lymphocyte subsets by flow cytometry, psoriasis model rats; format: in vivo, SD male rats; conditions: 7 days, vs model control group
Procedure: as §2, §3
After administration, blood is taken from abdominal aorta of the rats in each group of the second animal group, added erythrocyte lysis buffer, centrifuged to collect T lymphocytes, incubated CD4, CD3 and CD8 antibodies in 4° C., washed with a buffer, centrifuged to collect cells, and is subjected to flow cytometry to measure the ratio of the T lymphocyte subsets.

[5] = tested on: 5% imiquimod-induced psoriatic lesions; assay: Psoriatic lesions and PASI, 5% imiquimod-induced psoriasis model in rats (second animal group); format: in vivo, SD male rats; conditions: 7 days; for erythema and skin lesions of the rats: compared to model control group; for PASI: compared with model control group
Procedure: as §2, §3
The psoriasis area and severity index (PASI) of the mice in the first animal group and the rats in the second animal group is performed by taking photographs of the shaving area, giving 0-4 scores for the degree of erythema, scales and infiltration thickness in the skin lesions according to a PASI standard, and obtaining the total scores by summing the scores of the three parts; wherein the PASI standard is as follows: none 0, mild 1, moderate 2, severe 3, and extremely severe 4.

[6] = Weights of mice, 5% imiquimod-induced psoriasis model (first animal group); format: in vivo, BALB/c male mice; conditions: for weights of the mice / weight loss of the mice caused by psoriasis: 12 days; for weights of the mice: compared with blank control group; for weight loss of the mice caused by psoriasis: compared with model control group
Procedure: as §1, with “mice.” for “mice. 100 mg skin tissue of the mice in each group of the first animal group are precisely weighed, added 0.9 mL ice normal saline, homogenized with the tissue grinder, and centrifuged at 4° C. and 3000 rpm for 10 min. The supernatant is collected, and IL-12, IL-17, IL-6 and IL-1β level in the skin tissue are measured by kits according to the procedures of specification.”

[7] = intragastric 5 mg/kg once a day
[8] = intragastric 10 mg/kg once a day
[9] = intragastric 20 mg/kg once a day
[10] = anemoside B4 groups, doses not specified

C=C(C)[C@@H]1CC[C@]2(C(=O)O[C@@H]3O[C@H](CO[C@@H]4O[C@H](CO)[C@@H](O[C@@H]5O[C@@H](C)[C@H](O)[C@@H](O)[C@H]5O)[C@H](O)[C@H]4O)[C@@H](O)[C@H](O)[C@H]3O)CC[C@]3(C)[C@H](CC[C@@H]4[C@@]5(C)CC[C@H](O[C@@H]6OC[C@H](O)[C@H](O)[C@H]6O[C@@H]6O[C@@H](C)[C@H](O)[C@@H](O)[C@H]6O)[C@@](C)(CO)[C@@H]5CC[C@]43C)[C@H]12 [anemoside B4]
level of IL-17 in the skin tissue (IL-17 [1]; [7]): significantly reduced | level of IL-17 in the skin tissue (IL-17 [1]; [8]): significantly reduced | level of IL-17 in the skin tissue (IL-17 [1]; [9]): significantly reduced | IL-6 level in serum (IL-6; intragastric 5 mg/kg): significantly decreased | IL-6 level in serum (IL-6; intragastric 10 mg/kg): significantly decreased | IL-6 level in serum (IL-6; intragastric 20 mg/kg): significantly decreased | level of IL-12 in the skin tissue (IL-12; [7]): significantly reduced | level of IL-12 in the skin tissue (IL-12; [8]): significantly reduced | level of IL-12 in the skin tissue (IL-12; [9]): significantly reduced | improvement of the skin lesions, compared with the acitretin capsules (AC) intragastric administration group [2, 10]: better | skin lesions of the mice [2, 7]: significantly improved | skin lesions of the mice [2, 8]: significantly improved | skin lesions of the mice [2, 9]: significantly improved | IL-17 level in serum (IL-17 [3]; intragastric 5 mg/kg): significantly decreased | IL-17 level in serum (IL-17 [3]; intragastric 10 mg/kg): significantly decreased | IL-17 level in serum (IL-17 [3]; intragastric 20 mg/kg): significantly decreased | ratio of CD3+ in serum ([4]; intragastric 5 mg/kg): significantly increased | ratio of CD4+ in serum ([4]; intragastric 5 mg/kg): significantly increased | ratio of CD4+/CD8+ in serum ([4]; intragastric 5 mg/kg): significantly increased | ratio of CD3+ in serum ([4]; intragastric 10 mg/kg): significantly increased | ratio of CD4+ in serum ([4]; intragastric 10 mg/kg): significantly increased | ratio of CD4+/CD8+ in serum ([4]; intragastric 10 mg/kg): significantly increased | ratio of CD3+ in serum ([4]; intragastric 20 mg/kg): significantly increased | ratio of CD4+ in serum ([4]; intragastric 20 mg/kg): significantly increased | ratio of CD4+/CD8+ in serum ([4]; intragastric 20 mg/kg): significantly increased | erythema and skin lesions of the rats ([5]; intragastric 5 mg/kg): lightened | erythema and skin lesions of the rats ([5]; intragastric 10 mg/kg): lightened | PASI ([5]; intragastric 10 mg/kg): significantly decreased | erythema and skin lesions of the rats ([5]; intragastric 20 mg/kg): lightened | PASI ([5]; intragastric 20 mg/kg): significantly decreased | reversal of weight loss caused by imiquimod, compared with the acitretin capsules (AC) intragastric administration group [6, 10]: better | weights of the mice [6, 7]: significantly decreased | weight loss of the mice caused by psoriasis [6, 7]: can be improved | weights of the mice [6, 8]: significantly decreased | weight loss of the mice caused by psoriasis [6, 8]: can be improved | weights of the mice [6, 9]: significantly decreased | weight loss of the mice caused by psoriasis [6, 9]: can be improved
